Experimental data: patent US20220347071A1, “USE OF CANNABINOIDS IN THE TREATMENT OF ORAL INFLAMMATION AND PERIODONTAL DISEASE” (priority 2021, published 2022)
“Also recorded” adds a separate entry of the source.

Tests used:
[1] = tested on: IL-8; test: IL-8 release by PMA-stimulated NHEK (ELISA); type: cell-based, human; settings: for Effect on IL-8 release (in words): PMA-stimulated keratinocytes; for IL-8 release, % Relative inhibition: NHEK, PMA 0.5 μg/ml, 24 h
Protocol: (§1) The effects on normal human epidermal keratinocytes (NHEK) were measured by assessing IL-8 and PGE2 release by PMA-stimulated NHEK using specific ELISA kits.
(§2) Normal human epidermal keratinocytes (NHEK): • Cell type: NHEK • Culture conditions: 37° C., 5% CO2 • Culture medium: Keratinocyte SFM supplemented with Epidermal Growth Factor (EGF) 0.25 ng/ml • Pituitary extract (PE) 25 μg/ml • Gentamycin 25 μg/ml • Assay medium 1: Epilife® medium supplemented with PE 0.2% • Bovine transferrin 5 μg/ml • EGF 0.2 ng/ml • Insulin 5 μg/ml • Gentamycin/Amphotericin • Assay medium 2: Keratinocyte SFM supplemented with Gentamycin 25 μg/ml
(§3) Keratinocytes were seeded in 96-well plates and cultured for 24 hours in culture medium. […] After pre-incubation, the medium was removed and replacedby assay medium 1 containing or not (stimulated control) the compounds or the reference compound and containing the inducer (PMA tested at 0.5 μg/ml). The cells were then incubated for 24 hours. In parallel, a non-stimulated control condition was performed.
(§4) All experimental conditions were performed in n=3. At the end of incubation, the culture supernatants were collected for IL-8 and PGE2 quantifications.
(§5) IL-8 and PGE2 released in the culture supernatants were measured using specific ELISA kits according to the supplier's instructions.

[2] = tested on: PGE2; test: PGE2 release by PMA-stimulated NHEK (ELISA); type: cell-based, human; settings: for PGE2 release, % of the control: highest tested concentration; for PGE2 release, % of the control / Effect on PGE2 release (in words) / PGE2 release, % of relative inhibition: PMA-stimulated keratinocytes; for PGE2 release, % of relative inhibition: concentration not given; for PGE2 release, % Relative inhibition: NHEK, PMA 0.5 μg/ml, 24 h
Protocol: as §1, §2, §3, §4, §5

SMILES: C=C(C)[C@@H]1CCC(C)=C[C@H]1c1c(O)cc(CCCCC)cc1O [CBD, cannabidiol, reference compound]
- Effect on IL-8 release (in words) ([1]; tested at 0.3 μM): overstimulated IL-8 release
- PGE2 release, % of the control [2]: 185%

SMILES: C=C(C)[C@@H]1CCC(C)=C[C@H]1c1c(O)cc(CCCCC)c(C(=O)O)c1O [CBDA, cannabidiolic acid, reference compound]
- Effect on PGE2 release (in words) [2]: did not modulate

SMILES: CCCCCc1cc(O)c(C/C=C(\C)CCC=C(C)C)c(O)c1 [CBG, cannabigerol]
- Effect on IL-8 release (in words) ([1]; concentration not given): significantly inhibited
- Effect on IL-8 release (in words) ([1]; tested at 3 (unit not given)): strongly inhibited
- Effect on PGE2 release (in words) [2]: significant at all tested concentrations; also recorded: significantly inhibited
- PGE2 release, % of relative inhibition [2]: about 160%

SMILES: CCCCCc1cc(O)c(C/C=C(\C)CCC=C(C)C)c(O)c1C(=O)O [CBGA, cannabigerolic acid, reference compound]
- PGE2 release, % of the control [2]: 182%

SMILES: CCCc1cc(O)c(C/C=C(\C)CCC=C(C)C)c(O)c1C(=O)O [CBGVA, cannabigerovarinic acid]
- IL-8 release, % Relative inhibition ([1]; 0.1 μM): 2%
- IL-8 release, % Relative inhibition ([1]; 0.3 μM): 11%
- IL-8 release, % Relative inhibition ([1]; 1 μM): 9%
- PGE2 release, % Relative inhibition ([2]; 0.1 μM): 19%
- PGE2 release, % Relative inhibition ([2]; 0.3 μM): 65%
- PGE2 release, % Relative inhibition ([2]; 1 μM): >162%
- Effect on PGE2 release (in words) [2]: significant effect only when tested at the highest concentration; also recorded: inhibited
- PGE2 release, % of relative inhibition [2]: about 160%

SMILES: COc1ccc2c(c1)c(CC(=O)O)c(C)n2C(=O)c1ccc(Cl)cc1 [Indomethacin, indomethacin, reference compound]
- PGE2 release, % Relative inhibition ([2]; 1 μM): >169%

SMILES: O=C1O[C@H]([C@@H](O)CO)C(O)=C1O [L-Ascorbic acid, reference compound]
- Effect on PGE2 release (in words) [2]: overall the same effect at all tested concentrations; also recorded: significantly limited
- PGE2 release, % of relative inhibition [2]: ~145%
